Test results from US4456604A, “1-(3-Halo-2-pyridinyl) piperazine” (Merck & Co., Inc., priority 1982, dated 1984).
Read-outs that look alike come from different tables or passages of the source.

Key:
α1-adrenergic receptor = α1-adrenergic receptor binding ([3H] prazosin binding site, calf cerebral cortex); details: for Ki: [3H] prazosin binding site, calf cerebral cortex; for affinity for the α1-adrenergic receptors (in words): of the compounds tested
Procedure: (§1) The α1 - and α2 -adrenergic receptor binding was determined for 1-(3-halo-2-pyridinyl)piperazines and a number of other structurally related compounds shown in Table I.
Extent of binding to the α1 -adrenergic receptor was determined by the method of Greengrass and Bremner, Eur. J. Pharmacol., 55, 323 (1979) and is expressed in Table I as Ki, representing the affinity of each compound for the [^3 H] prazosin binding site in calf cerebral cortex.

α2-adrenergic receptor [1] = assay: α2-adrenergic receptor binding ([3H] clonidine binding site, calf cerebral cortex); details: compared to any of the other tested compounds
Procedure: as §1
(§2) Binding to the α2 -adrenergic receptor was determined by the method of Lyon and Randall, Life Sciences, 26, 1121 (1980) and also is expressed in Table I as Ki representing the affinity of each compound for the [^3 H] clonidine binding site in calf cerebral cortex.

α2-adrenergic receptor [2] = target: T1, α2-adrenergic receptor (Bos taurus, UniProt Q28838); assay: as above; details: for affinity for the α2-adrenergic receptors (in words): of the compounds tested, with the exception of compound 5
T1 construct: from tissue; host or cells: calf cerebral cortex
T1 sequence (Q28838 1-468): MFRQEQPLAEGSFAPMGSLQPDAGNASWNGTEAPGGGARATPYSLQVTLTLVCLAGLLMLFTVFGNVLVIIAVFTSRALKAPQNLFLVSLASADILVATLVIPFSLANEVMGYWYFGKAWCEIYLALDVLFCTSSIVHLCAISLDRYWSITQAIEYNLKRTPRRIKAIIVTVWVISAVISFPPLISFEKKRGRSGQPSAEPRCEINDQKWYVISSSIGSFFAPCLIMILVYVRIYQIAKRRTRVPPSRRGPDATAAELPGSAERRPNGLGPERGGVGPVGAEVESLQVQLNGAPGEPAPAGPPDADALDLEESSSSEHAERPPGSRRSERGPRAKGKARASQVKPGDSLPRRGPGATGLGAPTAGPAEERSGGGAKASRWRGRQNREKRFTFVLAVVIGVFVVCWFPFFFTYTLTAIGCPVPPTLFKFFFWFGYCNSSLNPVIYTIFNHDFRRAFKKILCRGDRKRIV
Procedure: as §1, §2

depression = details: in vivo; cited from earlier work
[3] = system: α1- or α2-adrenergic receptors; details: Clineschmidt et al. 1979; cited from earlier work
α2-adrenergic receptors = details: cited from earlier work
norepinephrine reuptake = details: cited from earlier work
[4] = system: locomotor depressant effects of methyldopa; details: rats; Clineschmidt et al. 1980; cited from earlier work
[5] = system: clonidine-induced sedation; details: man; Autret et al. 1977; cited from earlier work
[6] = system: sedation produced by clonidine; details: Drew et al. 1979; cited from earlier work
[7] = [3H] clonidine binding site, calf cerebral cortex, read-out: Adrenergic Binding Ki α2

With `Fc1cccnc1N1CCNCC1` [Compound 1, 1-(3-fluoro-2-pyridinyl)piperazine] the Ki (α1-adrenergic receptor) was 2300 nM, the “affinity for the α1-adrenergic receptors (in words)” value (α1-adrenergic receptor) was “weakest affinity (highest Ki)” and the “selectivity or ratio of Kiα1/Kiα2 (in words)” value (“selectivity or ratio” below) (α2-adrenergic receptor [1]) was “greatest selectivity”. For the same molecule, the Ki (α2-adrenergic receptor [2]) was 8.3 nM and the “affinity for the α2-adrenergic receptors (in words)” value (α2-adrenergic receptor [2]) was “strongest affinity (lowest Ki)”.
For `Clc1cccnc1N1CCNCC1` [Compound 2, 1-(3-chloro-2-pyridinyl)piperazine], the Ki (α1-adrenergic receptor) was 1800 nM, the “affinity for the α1-adrenergic receptors (in words)” value (α1-adrenergic receptor) was “weakest affinity (highest Ki)” and the “selectivity or ratio” value (α2-adrenergic receptor [1]) was “greatest selectivity”. For the same molecule, the Ki (α2-adrenergic receptor [2]; [7]) was 7.9 nM and the “affinity for the α2-adrenergic receptors (in words)” value (α2-adrenergic receptor [2]) was “strongest affinity (lowest Ki)”.
In the case of `Brc1cccnc1N1CCNCC1` [Compound 3, 1-(3-bromo-2-pyridinyl)piperazine], the Ki (α1-adrenergic receptor) is reported as 1480 nM, the “affinity for the α1-adrenergic receptors (in words)” value (α1-adrenergic receptor) is reported as “weakest affinity (highest Ki)” and the “selectivity or ratio” value (α2-adrenergic receptor [1]) is reported as “greatest selectivity”. The Ki (α2-adrenergic receptor [2]; [7]) was 11 nM and the “affinity for the α2-adrenergic receptors (in words)” value (α2-adrenergic receptor [2]) was “strongest affinity (lowest Ki)”.
Work on `Ic1cccnc1N1CCNCC1` [Compound 4] yielded a Ki (α1-adrenergic receptor) of 1600 nM and a Ki (α2-adrenergic receptor [2]; [7]) of 42 nM.
`CN1CCN(c2ncccc2Br)CC1` [Compound 5] showed a Ki (α1-adrenergic receptor) of 160 nM and a Ki (α2-adrenergic receptor [2]; [7]) of 2.9 nM.
For `Clc1cccc(N2CCNCC2)n1` [Compound 6], the Ki (α1-adrenergic receptor) was 500 nM and the Ki (α2-adrenergic receptor [2]; [7]) was 18 nM.
`c1ccc(N2CCNCC2)nc1` [Compound 7] showed a Ki (α1-adrenergic receptor) of 2400 nM and a Ki (α2-adrenergic receptor [2]; [7]) of 37 nM.
`Clc1ccc(N2CCNCC2)nc1` [Compound 8] showed a Ki (α2-adrenergic receptor [2]) of 1000 nM.
Molecule `Clc1cncc(N2CCNCC2)n1` [Compound 9] has a Ki (α1-adrenergic receptor) of 2400 nM and a Ki (α2-adrenergic receptor [2]) of 127 nM.
For `Clc1nccnc1N1CCNCC1` [Compound 10], the Ki (α1-adrenergic receptor) was 26000 nM and the Ki (α2-adrenergic receptor [2]; [7]) was 160 nM.
In the case of `CN1CCN2c3ccccc3Cc3ccccc3C2C1` (centres unmarked) [Mianserin], the clinical antidepressant effectiveness (depression) is listed as “clinically effective antidepressant”, the “selectivity for α1- or α2-adrenergic receptors” value [3] is listed as “fails to exhibit any important selectivity for α1 - or α2 -adrenergic receptors” and the α2-adrenergic receptor blockade (α2-adrenergic receptors) is listed as “blocks α2 -adrenergic receptors”. The “in vivo norepinephrine reuptake inhibiting properties” value (norepinephrine reuptake) was “minimal in vivo norepinephrine reuptake inhibiting properties”.
In the case of `COC(=O)[C@@H]1[C@H]2C[C@H]3c4[nH]c5ccccc5c4CCN3C[C@@H]2CC[C@@H]1O` [yohimbine], the “effect on locomotor depressant effects of methyldopa” value [4] is given as “antagonizes”, the “effect on clonidine-induced sedation” value [5] is given as “reduce clonidine-induced sedation in man” and the “effect on sedation produced by clonidine” value [6] is given as “antagonizes the sedation produced by clonidine”.
